From ChEMBL document CHEMBL1201862, “PubChem BioAssay data set” (2004)
Active and inactive are the calls of the source.

Legend:
[1] = biological target: 5-hydroxytryptamine receptor 1E (Homo sapiens, UniProt P28566); test: Counterscreen assay for S1P3 antagonists: Dose response cell-based high throughput screening assay to identify antagonists of the 5-Hydroxytryptamine Receptor Subtype 1E (5HT1E). [Related pubchem assays: 1429, 485 ]; format: functional
[2] = biological target: Sphingosine 1-phosphate receptor 3 (Homo sapiens, UniProt Q99500); test: Dose response cell-based high throughput screening assay for antagonists of the Sphingosine 1-Phosphate Receptor 3 (S1P3). [Related pubchem assays: 1429, 485 ]; format: functional
[3] = biological target: Leucine aminopeptidase (Plasmodium falciparum 3D7, UniProt Q8IL11); test: P. falciparum M17LAP inhibitors, primary screen, biochemical, fluorogenic H-Leu-NHMec substrate, 1536-well (AID 1619); format: functional
[4] = biological target: T1, Aspartyl aminopeptidase (Plasmodium falciparum 3D7, UniProt Q8I2J3); test: Counterscreen for inhibitors of M1 and M17 aminopeptidases: QFRET-based biochemical high throughput dose response assay for inhibitors of the Plasmodium falciparum M18 Aspartyl Aminopeptidase (PFM18AAP). [Related PubChem assays: 1619 (Screening assay (M17LAP inhibitors).), 1445 (Screening assay (M1AAP inhibitors).)]
T1 sequence (Q8I2J3 whole entry): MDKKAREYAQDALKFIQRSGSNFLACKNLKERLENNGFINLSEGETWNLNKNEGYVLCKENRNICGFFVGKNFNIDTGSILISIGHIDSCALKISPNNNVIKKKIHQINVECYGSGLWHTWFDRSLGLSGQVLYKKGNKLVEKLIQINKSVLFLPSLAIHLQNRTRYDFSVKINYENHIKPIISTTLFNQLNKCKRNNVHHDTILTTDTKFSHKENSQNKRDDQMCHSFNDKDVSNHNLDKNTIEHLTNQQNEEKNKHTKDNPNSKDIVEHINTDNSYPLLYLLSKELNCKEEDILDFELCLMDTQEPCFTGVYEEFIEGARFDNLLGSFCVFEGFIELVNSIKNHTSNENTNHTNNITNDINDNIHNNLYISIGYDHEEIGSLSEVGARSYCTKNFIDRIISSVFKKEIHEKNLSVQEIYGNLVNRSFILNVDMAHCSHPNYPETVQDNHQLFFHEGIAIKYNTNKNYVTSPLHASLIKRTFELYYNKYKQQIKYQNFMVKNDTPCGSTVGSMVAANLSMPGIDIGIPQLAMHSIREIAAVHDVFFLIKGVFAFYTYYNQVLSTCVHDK

[5] = biological target: Procathepsin L (Homo sapiens, UniProt P07711); test: CTSL1 protease inhibition – biochemical, QFRET, 1536-well, counter-screen for M1/M17 aminopeptidase inhibitor project, dose response (AID 2214)
[6] = biological target: Sphingosine 1-phosphate receptor 2 (Homo sapiens, UniProt O95136); test: Dose Response Cell Based Assay for Agonists of the S1P2 Receptor of Purchased Analogues. [Related pubchem assays: 729, 843, 854, 736 ]; format: functional
[7] = NIH-3T3 fibroblast cytotoxicity, dose response, cytotoxicity control, cell-based, fluorescence, Alamar Blue, secondary assay (AID 2327); format: functional;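 also: NIH-3T3 mouse fibroblasts cultured with fluconazole at 8 µg/mL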
[8] = luciferase reporter signal reduction – luminescence, H4-C neuroglioblastoma cells, dose response (AID 2458); format: functional, cell-based;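 also: H4 neuroglioblastoma cells stably carrying a luciferase reporter gene fusion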
[9] = cells; format: functional, cell-based
[10] = alpha-synuclein stem-loop luciferase translation blockers – H4 neuroglioma cells, luminescence, confirmation (AID 1988); format: functional, cell-based
[11] = fluconazole-exposed Candida albicans growth modulators – fluorescence, retest, confirmation (AID 2467); format: functional, cell-based
[12] = biological target: Serine/threonine-protein phosphatase (Candida dubliniensis (strain CD36 / CBS 7987 / NCPF 3949 / NRRLY-17841) (Yeast), UniProt B9W6M3); test: blockers of CaCl2-induced CDRE-lacZ signaling – S. cerevisiae, luminescence, secondary, dose response (AID 2388); format: functional, cell-based;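 also: yeast reporter cells carrying a calcineurin-responsive lacZ construct stimulated with calcium chloride; luminescent beta-galactosidase reporter signal in whole cells rather than isolated phosphatase activity; potency for inhibition where a drop in reporter signal means calcineurin blockade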
[13] = alpha-synuclein stem-loop translation blockers – luminescence, H4 neuroglioblastoma cells, dose confirmation, confirmation (AID 2454); format: functional, cell-based;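 also: H4 neuroglioblastoma cells carrying an alpha-synuclein 5'UTR luciferase reporter; potency for inhibition of the luciferase signal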
[14] = biological target: Heat shock protein HSP 90-alpha (Homo sapiens, UniProt P07900); format: functional, organism-based
[15] = biological target: ATP-dependent molecular chaperone HSP82 (Candida albicans (strain WO-1) (Yeast), UniProt C4YTQ8); test: steroid-induced GRE reporter decrease in yeast – S. cerevisiae, luminescence, Hsp90 inhibitor project, dose response (AID 2400); format: functional, cell-based;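 also: beta-galactosidase luminescence from glucocorticoid response element reporter as proxy for Hsp90 function; inhibitor potency where signal loss means Hsp90 inhibition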
[16] = biological target: T2, Alkaline phosphatase, tissue-nonspecific isozyme (Homo sapiens, UniProt P05186)
T2 sequence (P05186 whole entry): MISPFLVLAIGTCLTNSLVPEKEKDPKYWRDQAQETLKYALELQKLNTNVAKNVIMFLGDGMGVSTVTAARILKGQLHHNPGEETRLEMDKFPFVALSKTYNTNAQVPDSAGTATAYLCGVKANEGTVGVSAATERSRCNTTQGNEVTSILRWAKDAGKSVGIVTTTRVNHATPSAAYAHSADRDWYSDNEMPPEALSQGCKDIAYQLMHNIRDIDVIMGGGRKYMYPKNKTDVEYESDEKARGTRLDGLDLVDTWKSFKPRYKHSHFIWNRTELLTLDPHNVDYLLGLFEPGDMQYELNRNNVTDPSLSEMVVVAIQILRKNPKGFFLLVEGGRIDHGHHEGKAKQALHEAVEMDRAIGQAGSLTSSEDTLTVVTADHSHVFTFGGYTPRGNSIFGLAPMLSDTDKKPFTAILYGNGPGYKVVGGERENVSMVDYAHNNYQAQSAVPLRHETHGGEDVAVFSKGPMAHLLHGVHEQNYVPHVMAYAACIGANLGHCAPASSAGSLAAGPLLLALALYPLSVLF

[17] = Counterscreen for IDE inhibitors: Luminescence-based cell-based high throughput dose response assay to identify compounds that are cytotoxic to HEK cells. [Related pubchem assays: 434962 (Primary screen (IDE inhibitors in singlicate)), 449730 (Counterscreen (Cytotoxicity in triplicate)), 435028 (Confirmation (IDE inhibitors in triplicate)) …; format: functional; settings: HEK293
[18] = biological target: T3, Insulin-degrading enzyme (Homo sapiens, UniProt P14735); test: Dose Response: Fluorescence polarization-based cell-based high throughput dose response assay for inhibitors of insulin-degrading enzyme (IDE). [Related pubchem assays: 434962 (Primary screen (IDE inhibitors in singlicate)), 449730 (Counterscreen (Cytotoxicity in triplicate)), 435028 (Confirmation (IDE inhibitors in triplicate)), 434984 (Summary …; format: functional
T3 sequence (P14735 whole entry): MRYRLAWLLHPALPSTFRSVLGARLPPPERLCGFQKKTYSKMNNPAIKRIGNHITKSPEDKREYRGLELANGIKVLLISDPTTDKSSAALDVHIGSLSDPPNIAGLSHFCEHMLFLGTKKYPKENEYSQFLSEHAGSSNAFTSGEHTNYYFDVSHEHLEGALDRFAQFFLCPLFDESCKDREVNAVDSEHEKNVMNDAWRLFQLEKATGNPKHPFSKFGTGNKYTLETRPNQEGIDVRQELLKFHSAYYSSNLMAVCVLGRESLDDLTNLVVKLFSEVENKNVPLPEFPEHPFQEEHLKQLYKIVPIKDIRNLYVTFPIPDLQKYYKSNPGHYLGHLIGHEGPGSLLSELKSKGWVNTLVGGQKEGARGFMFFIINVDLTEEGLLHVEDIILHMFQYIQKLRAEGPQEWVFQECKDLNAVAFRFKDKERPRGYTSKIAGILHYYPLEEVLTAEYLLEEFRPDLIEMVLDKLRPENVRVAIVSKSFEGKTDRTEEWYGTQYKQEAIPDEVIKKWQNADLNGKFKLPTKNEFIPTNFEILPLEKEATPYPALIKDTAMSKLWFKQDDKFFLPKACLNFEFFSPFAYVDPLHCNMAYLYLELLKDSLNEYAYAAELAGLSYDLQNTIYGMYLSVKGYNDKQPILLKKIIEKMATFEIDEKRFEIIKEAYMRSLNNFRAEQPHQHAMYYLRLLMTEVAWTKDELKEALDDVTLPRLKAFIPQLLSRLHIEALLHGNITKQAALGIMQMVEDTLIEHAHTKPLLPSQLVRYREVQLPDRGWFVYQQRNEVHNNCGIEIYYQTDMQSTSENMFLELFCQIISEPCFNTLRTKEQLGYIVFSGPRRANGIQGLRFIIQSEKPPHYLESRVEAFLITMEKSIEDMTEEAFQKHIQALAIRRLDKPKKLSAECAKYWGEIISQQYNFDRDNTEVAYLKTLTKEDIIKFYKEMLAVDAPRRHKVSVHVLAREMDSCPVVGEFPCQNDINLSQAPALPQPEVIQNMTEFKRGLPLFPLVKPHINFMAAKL

[19] = mitochondrial function rescue without frataxin homolog – Friedreich's ataxia, plus single-dose screen, dose response (AID 1465); format: functional;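 also: yeast depleted of Yfh1p frataxin homolog grown on glycerol needing respiration; WST-1 tetrazolium dye reduction as measure of cellular dehydrogenase metabolic activity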
[20] = biological target: Mothers against decapentaplegic homolog 3 (Homo sapiens, UniProt P84022); test: blockers of Smad3 complex formation in lysate – cell lysate, secondary confirmation, chemiluminescent ELISA, HEK293 lysate, dose response (AID 1058); format: functional
[21] = biological target: Serine/threonine-protein phosphatase PP1-alpha catalytic subunit (Homo sapiens, UniProt P62136); test: inhibition of protein phosphatase 1 activity – biochemical, fluorescence, dose response (AID 2403);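 also: phosphatase turnover of OMFP into fluorescent 3-O-methylfluorescein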
[22] = biological target: T4, Serine/threonine-protein phosphatase (Homo sapiens, UniProt Q9BPW0); test: Counterscreen for inhibitors of PP1: fluorescence-based biochemical high throughput dose response assay to identify inhibitors of Protein Phosphatase 5 (PP5). [Related pubchem assays: 2034 (Summary (PP5 inhibitors)), 1987 (PP5 inhibitors in singlate), 2235 (PP1 inhibitors in singlate)]
T4 sequence (Q9BPW0 whole entry): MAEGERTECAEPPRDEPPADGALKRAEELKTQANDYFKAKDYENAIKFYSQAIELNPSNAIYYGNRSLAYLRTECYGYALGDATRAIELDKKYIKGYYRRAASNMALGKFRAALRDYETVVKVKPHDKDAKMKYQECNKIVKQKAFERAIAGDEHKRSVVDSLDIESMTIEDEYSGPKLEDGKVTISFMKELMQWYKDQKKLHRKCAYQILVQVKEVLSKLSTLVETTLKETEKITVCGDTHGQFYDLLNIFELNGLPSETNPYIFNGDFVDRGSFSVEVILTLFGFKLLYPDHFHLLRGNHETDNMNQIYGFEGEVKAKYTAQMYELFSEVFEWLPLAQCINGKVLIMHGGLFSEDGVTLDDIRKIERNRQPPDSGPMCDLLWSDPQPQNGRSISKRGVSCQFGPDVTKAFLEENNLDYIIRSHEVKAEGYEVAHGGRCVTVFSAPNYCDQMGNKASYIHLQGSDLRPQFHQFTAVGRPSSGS

[23] = biological target: T5, Heat shock factor protein 1 (Mus musculus, UniProt P38532); test: enhancement of HSF1-driven luciferase signal – cell-based, NIH3T3, luminescence, dose retest, confirmation (AID 435004); format: functional;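 also: stress induced by proteasome inhibitor MG132 added 30 min after compound; luciferase reporter driven by HSF1 response element in NIH3T3 cells; actives raise luminescence as potentiators of the MG132 stress response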
T5 sequence (P38532 whole entry): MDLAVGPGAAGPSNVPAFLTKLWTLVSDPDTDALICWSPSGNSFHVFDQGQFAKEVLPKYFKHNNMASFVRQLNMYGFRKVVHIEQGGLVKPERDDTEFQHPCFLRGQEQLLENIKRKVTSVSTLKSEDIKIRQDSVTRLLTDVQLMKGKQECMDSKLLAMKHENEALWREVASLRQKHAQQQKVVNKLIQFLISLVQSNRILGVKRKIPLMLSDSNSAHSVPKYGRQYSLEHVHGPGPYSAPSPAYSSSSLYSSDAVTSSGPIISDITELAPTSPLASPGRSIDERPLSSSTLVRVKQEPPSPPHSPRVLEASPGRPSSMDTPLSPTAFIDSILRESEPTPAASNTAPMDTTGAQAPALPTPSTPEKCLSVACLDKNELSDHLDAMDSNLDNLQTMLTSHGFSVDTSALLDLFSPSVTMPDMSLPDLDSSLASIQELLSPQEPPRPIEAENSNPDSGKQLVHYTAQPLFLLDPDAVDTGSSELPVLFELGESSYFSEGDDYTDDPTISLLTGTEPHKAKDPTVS

[24] = tested on: Streptococcus sp. 'group A'; test: Streptococcus pyogenes SK(-)GAS viability under kanamycin – luminescence, BacTiterGlo, confirmation, counter-screen for streptokinase expression inhibitor project, dose response (AID 1900); format: functional, organism-based
[25] = biological target: Potassium voltage-gated channel subfamily KQT member 2 (Rattus norvegicus, UniProt O88943, W236L); test: potentiation of rat KCNQ2 current – cell-based, automated electrophysiology, mechanism study for KCNQ2 potentiator project, dose response (AID 2603); format: functional
[26] = tested on: Streptococcus; test: GAS UMAA2166 growth inhibition – luminescence, BacTiterGlo, counter-screen for streptokinase expression inhibitor project, dose response (AID 1915); format: functional, organism-based;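 also: potency for reduction of bacterial viability or growth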

Mothers against decapentaplegic homolog 3, sequence (P84022 whole entry): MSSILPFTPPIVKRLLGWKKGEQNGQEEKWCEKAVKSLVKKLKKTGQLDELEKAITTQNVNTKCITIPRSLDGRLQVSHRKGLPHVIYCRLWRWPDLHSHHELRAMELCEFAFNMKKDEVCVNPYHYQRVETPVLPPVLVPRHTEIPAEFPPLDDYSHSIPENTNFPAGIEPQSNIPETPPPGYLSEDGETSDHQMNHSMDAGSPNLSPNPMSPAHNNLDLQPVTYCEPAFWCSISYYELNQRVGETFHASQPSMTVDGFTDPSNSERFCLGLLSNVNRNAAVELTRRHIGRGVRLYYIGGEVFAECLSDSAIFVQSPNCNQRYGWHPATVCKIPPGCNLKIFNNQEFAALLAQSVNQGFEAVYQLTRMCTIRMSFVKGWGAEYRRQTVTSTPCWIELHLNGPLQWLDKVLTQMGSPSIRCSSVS
Leucine aminopeptidase, sequence (Q8IL11 whole entry): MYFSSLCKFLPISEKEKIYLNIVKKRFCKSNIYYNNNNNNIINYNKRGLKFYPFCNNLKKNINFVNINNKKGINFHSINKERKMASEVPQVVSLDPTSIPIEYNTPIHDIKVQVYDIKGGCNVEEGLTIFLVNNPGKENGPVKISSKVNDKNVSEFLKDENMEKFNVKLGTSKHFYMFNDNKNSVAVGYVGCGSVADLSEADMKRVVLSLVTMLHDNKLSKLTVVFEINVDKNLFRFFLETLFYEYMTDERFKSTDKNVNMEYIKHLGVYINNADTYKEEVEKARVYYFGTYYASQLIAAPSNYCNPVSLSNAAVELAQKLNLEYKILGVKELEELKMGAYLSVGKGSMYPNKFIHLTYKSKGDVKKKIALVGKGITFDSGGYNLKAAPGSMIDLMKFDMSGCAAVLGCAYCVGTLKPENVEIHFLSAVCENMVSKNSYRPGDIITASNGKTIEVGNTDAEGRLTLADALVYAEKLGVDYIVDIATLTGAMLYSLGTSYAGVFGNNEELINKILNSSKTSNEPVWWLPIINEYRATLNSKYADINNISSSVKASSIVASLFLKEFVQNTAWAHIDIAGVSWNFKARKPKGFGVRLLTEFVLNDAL
Potassium voltage-gated channel subfamily KQT member 2, sequence (O88943 whole entry W236L): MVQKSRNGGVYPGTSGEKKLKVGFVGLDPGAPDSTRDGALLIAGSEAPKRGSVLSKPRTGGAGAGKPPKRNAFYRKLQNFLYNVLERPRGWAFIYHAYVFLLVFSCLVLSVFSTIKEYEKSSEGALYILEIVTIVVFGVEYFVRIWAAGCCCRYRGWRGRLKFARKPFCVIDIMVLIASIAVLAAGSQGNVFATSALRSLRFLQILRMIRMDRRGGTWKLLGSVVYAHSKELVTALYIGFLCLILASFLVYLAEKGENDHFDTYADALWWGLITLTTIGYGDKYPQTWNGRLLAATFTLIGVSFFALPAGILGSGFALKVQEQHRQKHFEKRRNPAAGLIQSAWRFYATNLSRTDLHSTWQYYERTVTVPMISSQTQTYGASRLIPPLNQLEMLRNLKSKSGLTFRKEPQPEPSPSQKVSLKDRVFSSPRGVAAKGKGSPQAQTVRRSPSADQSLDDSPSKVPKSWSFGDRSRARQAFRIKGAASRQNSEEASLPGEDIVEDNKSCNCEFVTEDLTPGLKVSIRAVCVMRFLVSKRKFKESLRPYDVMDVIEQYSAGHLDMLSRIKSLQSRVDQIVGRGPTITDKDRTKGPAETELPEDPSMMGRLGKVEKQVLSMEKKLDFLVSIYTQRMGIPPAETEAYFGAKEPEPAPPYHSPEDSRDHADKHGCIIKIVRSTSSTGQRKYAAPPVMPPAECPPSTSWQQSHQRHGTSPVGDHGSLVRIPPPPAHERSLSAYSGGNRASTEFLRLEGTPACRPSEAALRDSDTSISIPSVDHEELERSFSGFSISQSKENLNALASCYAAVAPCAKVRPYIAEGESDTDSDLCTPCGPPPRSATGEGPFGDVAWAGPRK
Sphingosine 1-phosphate receptor 3, sequence (Q99500 whole entry): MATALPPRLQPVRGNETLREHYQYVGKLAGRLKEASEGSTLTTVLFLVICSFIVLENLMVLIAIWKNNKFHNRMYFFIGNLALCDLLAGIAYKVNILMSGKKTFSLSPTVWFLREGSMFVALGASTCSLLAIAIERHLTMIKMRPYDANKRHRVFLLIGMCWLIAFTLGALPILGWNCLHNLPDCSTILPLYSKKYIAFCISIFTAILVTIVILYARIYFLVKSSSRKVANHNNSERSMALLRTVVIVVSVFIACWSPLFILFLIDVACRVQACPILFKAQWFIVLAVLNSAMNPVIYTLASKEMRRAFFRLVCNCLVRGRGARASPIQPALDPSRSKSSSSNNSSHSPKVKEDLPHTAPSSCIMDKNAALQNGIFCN
5-hydroxytryptamine receptor 1E, sequence (P28566 whole entry): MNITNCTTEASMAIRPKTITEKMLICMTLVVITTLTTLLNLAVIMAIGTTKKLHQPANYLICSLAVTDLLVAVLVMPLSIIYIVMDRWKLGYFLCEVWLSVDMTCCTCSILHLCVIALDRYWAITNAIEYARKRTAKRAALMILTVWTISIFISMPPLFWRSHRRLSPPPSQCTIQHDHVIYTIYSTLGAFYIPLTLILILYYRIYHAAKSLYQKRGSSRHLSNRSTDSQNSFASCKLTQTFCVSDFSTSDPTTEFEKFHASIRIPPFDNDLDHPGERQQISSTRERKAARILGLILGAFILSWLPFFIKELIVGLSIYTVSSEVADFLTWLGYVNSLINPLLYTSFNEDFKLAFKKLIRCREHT
Procathepsin L, sequence (P07711 whole entry): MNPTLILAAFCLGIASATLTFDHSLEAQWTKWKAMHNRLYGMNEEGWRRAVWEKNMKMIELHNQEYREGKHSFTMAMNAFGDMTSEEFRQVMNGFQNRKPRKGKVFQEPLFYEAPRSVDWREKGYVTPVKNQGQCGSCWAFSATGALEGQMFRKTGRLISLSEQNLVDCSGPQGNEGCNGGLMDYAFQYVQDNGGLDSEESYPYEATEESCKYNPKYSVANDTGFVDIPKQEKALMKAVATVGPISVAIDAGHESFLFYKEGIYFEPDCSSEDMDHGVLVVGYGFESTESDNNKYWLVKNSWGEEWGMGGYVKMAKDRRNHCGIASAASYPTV
Serine/threonine-protein phosphatase PP1-alpha catalytic subunit, sequence (P62136 whole entry): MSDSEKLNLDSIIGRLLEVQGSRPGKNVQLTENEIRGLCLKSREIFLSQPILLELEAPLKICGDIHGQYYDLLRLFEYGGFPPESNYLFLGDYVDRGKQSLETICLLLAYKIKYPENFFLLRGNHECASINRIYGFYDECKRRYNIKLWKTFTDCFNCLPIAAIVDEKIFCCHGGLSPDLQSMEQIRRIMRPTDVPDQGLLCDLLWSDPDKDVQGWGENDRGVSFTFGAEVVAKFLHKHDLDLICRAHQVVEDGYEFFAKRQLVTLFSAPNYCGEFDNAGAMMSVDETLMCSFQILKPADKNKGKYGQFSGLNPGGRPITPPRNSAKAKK
Serine/threonine-protein phosphatase (Candida dubliniensis (strain CD36 / CBS 7987 / NCPF 3949 / NRRLY-17841) (Yeast), UniProt B9W6M3), sequence (B9W6M3 whole entry): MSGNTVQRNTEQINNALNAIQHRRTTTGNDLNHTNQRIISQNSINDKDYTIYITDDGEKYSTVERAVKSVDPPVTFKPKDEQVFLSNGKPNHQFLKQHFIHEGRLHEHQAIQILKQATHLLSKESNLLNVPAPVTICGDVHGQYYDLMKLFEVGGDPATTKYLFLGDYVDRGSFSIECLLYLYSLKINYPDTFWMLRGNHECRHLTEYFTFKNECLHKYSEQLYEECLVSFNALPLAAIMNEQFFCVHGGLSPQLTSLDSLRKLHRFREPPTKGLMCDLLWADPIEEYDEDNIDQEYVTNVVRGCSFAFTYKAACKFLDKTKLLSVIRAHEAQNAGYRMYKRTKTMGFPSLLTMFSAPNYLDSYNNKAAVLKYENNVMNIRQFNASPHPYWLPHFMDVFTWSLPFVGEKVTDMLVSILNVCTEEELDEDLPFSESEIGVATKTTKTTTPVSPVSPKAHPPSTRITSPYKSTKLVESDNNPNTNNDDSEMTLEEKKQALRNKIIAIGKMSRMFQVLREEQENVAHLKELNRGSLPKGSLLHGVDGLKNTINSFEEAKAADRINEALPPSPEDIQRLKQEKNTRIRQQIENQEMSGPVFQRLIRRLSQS
Sphingosine 1-phosphate receptor 2, sequence (O95136 whole entry): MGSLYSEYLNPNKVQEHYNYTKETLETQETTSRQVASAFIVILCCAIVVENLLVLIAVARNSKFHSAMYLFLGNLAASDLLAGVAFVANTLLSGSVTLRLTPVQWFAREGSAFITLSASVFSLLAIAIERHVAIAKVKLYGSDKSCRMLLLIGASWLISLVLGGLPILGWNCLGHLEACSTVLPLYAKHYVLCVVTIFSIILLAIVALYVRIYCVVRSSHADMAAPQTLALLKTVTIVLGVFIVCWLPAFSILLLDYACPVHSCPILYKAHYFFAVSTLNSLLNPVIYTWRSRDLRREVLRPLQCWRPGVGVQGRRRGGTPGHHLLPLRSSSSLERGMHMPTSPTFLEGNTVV
ATP-dependent molecular chaperone HSP82, sequence (C4YTQ8 whole entry): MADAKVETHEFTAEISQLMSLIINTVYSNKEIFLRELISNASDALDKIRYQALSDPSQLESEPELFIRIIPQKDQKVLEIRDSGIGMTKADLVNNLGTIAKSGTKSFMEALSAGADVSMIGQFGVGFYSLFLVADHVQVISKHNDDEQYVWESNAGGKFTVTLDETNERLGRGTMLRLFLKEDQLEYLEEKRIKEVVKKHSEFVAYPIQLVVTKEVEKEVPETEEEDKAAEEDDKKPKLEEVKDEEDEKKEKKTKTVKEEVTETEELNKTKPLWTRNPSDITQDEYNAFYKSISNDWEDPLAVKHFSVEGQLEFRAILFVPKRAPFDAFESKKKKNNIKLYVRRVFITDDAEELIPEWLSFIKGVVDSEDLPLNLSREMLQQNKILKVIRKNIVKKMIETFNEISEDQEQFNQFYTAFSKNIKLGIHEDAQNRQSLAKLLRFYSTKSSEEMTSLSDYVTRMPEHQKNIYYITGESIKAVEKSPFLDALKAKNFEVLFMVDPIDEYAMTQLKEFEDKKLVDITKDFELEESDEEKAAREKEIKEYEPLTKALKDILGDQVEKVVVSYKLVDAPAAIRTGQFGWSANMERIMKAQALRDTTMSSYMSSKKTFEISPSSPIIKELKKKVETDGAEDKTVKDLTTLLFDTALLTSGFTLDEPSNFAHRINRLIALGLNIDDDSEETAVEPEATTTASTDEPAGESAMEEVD

O=C(Nc1ccc(Br)cc1)C(c1ccccc1)c1ccccc1
IC50 [1]: > 50 µM (not active) | IC50 [2]: 1.33 µM (active)

CCN(CC)c1ccc(NC(=O)CSc2nc(C)cc(O)n2)cc1
IC50 [3]: 3.06 µM (active) | IC50 [4]: > 73.5 µM (not active) | IC50 [5]: > 59.6 µM (not active)

Cc1cc(C(=O)Cn2cc(C(F)(F)F)ccc2=O)c(C)n1Cc1ccccc1
EC50 [6]: 0.723 µM (active)

Oc1c(C(Nc2nccs2)c2ccc(C(F)(F)F)cc2)ccc2cccnc12 (stereo not drawn)
EC50 [7]: 11.2 µM (active) | EC50 [8]: 8.36 µM (active) | EC50 [9]: 1.04 µM (active) | EC50 [10]: < 0.1 µM (active) | EC50 [11]: 1.01 µM (active) | EC50 [12]: > 180 µM (inactive) | EC50 [13]: > 12 µM (not active) | AC50 [14]: 3.69 µM (active) | EC50 [15]: > 160 µM (inactive)

Cc1ccc(C(O)(C(=O)NNC(=O)CN2CCN(C)CC2)c2ccc(C)cc2)cc1
EC50 [16]: 64.1 µM (not active)

O=C1NC(=O)N(c2ccc3c(c2)OCO3)C(=O)/C1=C/c1ccc(N2CCCC2)o1
IC50 [17]: > 55.7 µM (not active) | IC50 [18]: 20.7 µM (not active) | EC50 [19]: > 100 µM (active)

COc1cc(C(c2cc3c(cc2O)OCO3)N2CCCCC2)cc(OC)c1OC (stereo not drawn)
IC50 [20]: 12.5 µM (not active)

O=C(O)c1cc(-c2ccc(Cl)c(Cl)c2)n(-c2ccccc2)n1
IC50 [21]: 5.82 µM (active) | IC50 [22]: > 67 µM (not active) | EC50 [23]: > 260 µM (inactive)

O=C(Cc1ccccc1)N/N=C/c1cc(Br)cc(Cl)c1O
EC50 [7]: > 150 µM (inactive) | EC50 [24]: 1.05 µM (active) | EC50 [11]: 4.68 µM (active) | EC50 [25]: 7.13 µM (active) | EC50 [26]: 1.73 µM (active)
